Test results taken from ChEMBL document CHEMBL5303573, “Mapping human microbiome drug metabolism by gut bacteria and their genes” (Nature, 2019).

Legend:
[1] = parabacteroides distasonis, 12 h, 2 µM
Description: The drug is tested on Parabacteroides distasonis strain: ATCC8503 for biotransformation. The drug concentrations were measured before and after a 12-h incubation by liquid-chromatography-coupled mass spectrometry (LC–MS)

[2] = The drug is tested on Bacteroides coprophilus strain: DSM18228 for biotransformation. The drug concentrations were measured before and after a 12-h incubation by liquid-chromatography-coupled mass spectrometry (LC–MS); settings: 2 µM
[3] = The drug is tested on Clostridium sp. strain: fecal isolate for biotransformation. The drug concentrations were measured before and after a 12-h incubation by liquid-chromatography-coupled mass spectrometry (LC–MS); settings: 2 µM
[4] = The drug is tested on Bacteroides pectinophilus strain: ATCC43243 for biotransformation. The drug concentrations were measured before and after a 12-h incubation by liquid-chromatography-coupled mass spectrometry (LC–MS); settings: 2 µM
[5] = bacteroides eggerthii, 12 h, 2 µM
Description: The drug is tested on Bacteroides eggerthii strain: DSM20697 for biotransformation. The drug concentrations were measured before and after a 12-h incubation by liquid-chromatography-coupled mass spectrometry (LC–MS)

[6] = The drug is tested on Bifidobacterium longum subsp. Infantis strain: CCUG52486 for biotransformation. The drug concentrations were measured before and after a 12-h incubation by liquid-chromatography-coupled mass spectrometry (LC–MS); settings: 2 µM
[7] = The drug is tested on Providencia rettgeri strain: DSM1131 for biotransformation. The drug concentrations were measured before and after a 12-h incubation by liquid-chromatography-coupled mass spectrometry (LC–MS); type: ADME; set-up: dose 2 uM, timepoint 0 vs 12 hours; settings: 2 µM
[8] = The drug is tested on Anaerotruncus colihominis strain: DSM17241 for biotransformation. The drug concentrations were measured before and after a 12-h incubation by liquid-chromatography-coupled mass spectrometry (LC–MS); settings: 2 µM
[9] = The drug is tested on Ruminococcus torques strain: ATCC27756 for biotransformation. The drug concentrations were measured before and after a 12-h incubation by liquid-chromatography-coupled mass spectrometry (LC–MS); type: ADME; set-up: dose 2 uM, timepoint 0 vs 12 hours; settings: 2 µM
[10] = The drug is tested on Parabacteroides merdae strain: ATCC43184 for biotransformation. The drug concentrations were measured before and after a 12-h incubation by liquid-chromatography-coupled mass spectrometry (LC–MS); settings: 2 µM
[11] = The drug is tested on Bacteroides caccae strain: ATCC43185 for biotransformation. The drug concentrations were measured before and after a 12-h incubation by liquid-chromatography-coupled mass spectrometry (LC–MS); settings: 2 µM
[12] = bacteroides fragilis, 12 h, 2 µM
Description: The drug is tested on Bacteroides fragilis strain: DS-208 for biotransformation. The drug concentrations were measured before and after a 12-h incubation by liquid-chromatography-coupled mass spectrometry (LC–MS)

[13] = The drug is tested on Bacteroides fragilis strain: ATCC43859 for biotransformation. The drug concentrations were measured before and after a 12-h incubation by liquid-chromatography-coupled mass spectrometry (LC–MS); settings: 2 µM
[14] = The drug is tested on Bacteroides fragilis strain: HMW610 for biotransformation. The drug concentrations were measured before and after a 12-h incubation by liquid-chromatography-coupled mass spectrometry (LC–MS); settings: 2 µM
[15] = bacteroides fragilis, 12 h, 2 µM; remark: listed apart in the source
Description: The drug is tested on Bacteroides fragilis strain: 3397 (T10) for biotransformation. The drug concentrations were measured before and after a 12-h incubation by liquid-chromatography-coupled mass spectrometry (LC–MS)

[16] = The drug is tested on Ruminococcus lactaris strain: ATCC29176 for biotransformation. The drug concentrations were measured before and after a 12-h incubation by liquid-chromatography-coupled mass spectrometry (LC–MS); settings: 2 µM
[17] = bacteroides thetaiotaomicron, 12 h, 2 µM
Description: The drug is tested on Bacteroides thetaiotaomicron strain: 7330 for biotransformation. The drug concentrations were measured before and after a 12-h incubation by liquid-chromatography-coupled mass spectrometry (LC–MS)

[18] = The drug is tested on Bifidobacterium breve strain: DSM20213 for biotransformation. The drug concentrations were measured before and after a 12-h incubation by liquid-chromatography-coupled mass spectrometry (LC–MS); settings: 2 µM
[19] = parabacteroides johnsonii, 12 h, 2 µM
Description: The drug is tested on Parabacteroides johnsonii strain: DSM18315 for biotransformation. The drug concentrations were measured before and after a 12-h incubation by liquid-chromatography-coupled mass spectrometry (LC–MS)

Compound | Bacterial Biotransformation [1] | Bacterial Biotransformation [2] | Bacterial Biotransformation [3] | Bacterial Biotransformation [4] | Bacterial Biotransformation [5] | Bacterial Biotransformation [6] | Bacterial Biotransformation [7] | Bacterial Biotransformation [8] | Bacterial Biotransformation [9] | Bacterial Biotransformation [10] | Bacterial Biotransformation [11] | Bacterial Biotransformation [12] | Bacterial Biotransformation [13] | Bacterial Biotransformation [14] | Bacterial Biotransformation [15] | Bacterial Biotransformation [16] | Bacterial Biotransformation [17] | Bacterial Biotransformation [18] | Bacterial Biotransformation [19]
COc1cc2nc(N(C)CCCNC(=O)C3CCCO3)nc(N)c2cc1OC (stereo not drawn) [ALFUZOSIN] | Compound NOT metabolized | Compound NOT metabolized | Compound NOT metabolized | Compound NOT metabolized | Compound NOT metabolized | Compound NOT metabolized | Compound NOT metabolized | Compound NOT metabolized | Compound NOT metabolized | Compound NOT metabolized | Compound NOT metabolized | Compound NOT metabolized | Compound NOT metabolized | – | – | – | – | – | –
Br.CN1CCC[C@@H]1Cc1c[nH]c2ccc(CCS(=O)(=O)c3ccccc3)cc12 [ELETRIPTAN HYDROBROMIDE] | Compound NOT metabolized | Compound NOT metabolized | Compound NOT metabolized | Compound NOT metabolized | Compound NOT metabolized | Compound NOT metabolized | Compound NOT metabolized | Compound NOT metabolized | Compound NOT metabolized | Compound NOT metabolized | Compound NOT metabolized | Compound NOT metabolized | Compound NOT metabolized | Compound NOT metabolized | Compound NOT metabolized | Compound NOT metabolized | Compound NOT metabolized | – | –
COC1=CC(=O)C[C@@H](C)[C@]12Oc1c(Cl)c(OC)cc(OC)c1C2=O [GRISEOFULVIN] | Compound metabolized | – | Compound metabolized | Compound NOT metabolized | Compound metabolized | Compound NOT metabolized | Compound NOT metabolized | Compound NOT metabolized | Compound NOT metabolized | Compound metabolized | Compound NOT metabolized | Compound metabolized | Compound metabolized | – | Compound metabolized | – | – | – | –
CC(C)(C)N.CCC[C@H](N[C@@H](C)C(=O)N1[C@H](C(=O)O)C[C@@H]2CCCC[C@@H]21)C(=O)OCC [PERINDOPRIL ERBUMINE] | Compound NOT metabolized | Compound NOT metabolized | Compound NOT metabolized | Compound NOT metabolized | Compound NOT metabolized | Compound NOT metabolized | Compound NOT metabolized | Compound NOT metabolized | Compound NOT metabolized | – | Compound NOT metabolized | – | Compound NOT metabolized | – | Compound NOT metabolized | Compound NOT metabolized | – | Compound NOT metabolized | –
Nc1nc2ccc(OC(F)(F)F)cc2s1 [RILUZOLE] | Compound metabolized | Compound NOT metabolized | Compound metabolized | Compound NOT metabolized | Compound metabolized | Compound NOT metabolized | – | Compound NOT metabolized | – | Compound NOT metabolized | Compound NOT metabolized | Compound metabolized | Compound metabolized | Compound metabolized | Compound NOT metabolized | Compound NOT metabolized | Compound metabolized | Compound NOT metabolized | Compound NOT metabolized
CCCCCNC(=N)N/N=C/c1c[nH]c2ccc(OC)cc12.O=C(O)/C=C\C(=O)O [TEGASEROD MALEATE] | Compound NOT metabolized | Compound NOT metabolized | Compound NOT metabolized | Compound NOT metabolized | Compound NOT metabolized | Compound NOT metabolized | – | Compound NOT metabolized | Compound NOT metabolized | Compound NOT metabolized | Compound NOT metabolized | Compound NOT metabolized | Compound NOT metabolized | Compound NOT metabolized | Compound NOT metabolized | Compound NOT metabolized | Compound NOT metabolized | Compound NOT metabolized | Compound NOT metabolized
c1ccc2[nH]c(-c3cscn3)nc2c1 [THIABENDAZOLE] | – | – | Compound NOT metabolized | Compound NOT metabolized | Compound NOT metabolized | Compound NOT metabolized | Compound NOT metabolized | Compound NOT metabolized | Compound NOT metabolized | – | Compound NOT metabolized | Compound NOT metabolized | Compound NOT metabolized | – | Compound NOT metabolized | Compound NOT metabolized | – | Compound NOT metabolized | Compound NOT metabolized
N#Cc1ccc2[nH]cc(CCCCN3CCN(c4ccc5oc(C(N)=O)cc5c4)CC3)c2c1 [VILAZODONE] | Compound metabolized | Compound metabolized | Compound NOT metabolized | Compound NOT metabolized | Compound metabolized | Compound metabolized | – | Compound NOT metabolized | Compound NOT metabolized | Compound metabolized | Compound metabolized | Compound metabolized | Compound metabolized | Compound metabolized | Compound metabolized | Compound NOT metabolized | Compound metabolized | Compound NOT metabolized | Compound metabolized
CCOC(=O)C1=C[C@]2(CC)CCCN3CCc4c(n1c1ccccc41)[C@@H]32 [VINPOCETINE] | – | Compound NOT metabolized | Compound metabolized | Compound NOT metabolized | Compound NOT metabolized | Compound NOT metabolized | Compound NOT metabolized | Compound NOT metabolized | – | Compound NOT metabolized | Compound NOT metabolized | Compound NOT metabolized | Compound NOT metabolized | – | Compound NOT metabolized | Compound NOT metabolized | Compound NOT metabolized | Compound NOT metabolized | –
CCN(C(C)=O)c1cccc(-c2ccnc3c(C#N)cnn23)c1 [ZALEPLON] | Compound NOT metabolized | Compound NOT metabolized | Compound metabolized | Compound NOT metabolized | Compound NOT metabolized | – | Compound NOT metabolized | Compound NOT metabolized | Compound NOT metabolized | – | – | Compound NOT metabolized | Compound metabolized | Compound metabolized | Compound NOT metabolized | Compound NOT metabolized | – | Compound NOT metabolized | –
